Results published in paper PMC11078746 (Nature, 2024).
“And” between values parts separate entries of the source, which are not always exact repeats. Identical values can stand only once. Like-named read-outs stand apart in the source and are kept apart here.

Experiment: Compound 3 blood PK in SW48 tumour-bearing mice
Assay type: in vivo, mouse
Method: All animal studies were conducted in accordance with ethics and procedures covered by permit BS-2275 and BS-1975 issued by the Kantonales Veterinäramt Basel-Stadt and in strict adherence to guidelines of the Eidgenössisches Tierschutzgesetz and the Eidgenössische Tierschutzverordnung, Switzerland. All animal studies were approved by the internal ethics committee. All animals had access to food and water ad libitum and were identified with transponders. They were housed in a specific-pathogen-free facility in IVC racks under a 12 h–12 h light–dark cycle. To establish cell-line-derived xenograft models, 6–7-week-old female athymic nude (Crl:NU(NCr)-Foxn1^nu) or SCID-BEIGE (CB17.Cg-PrkdcscidLystbg-J/Crl) mice from Charles River were engrafted subcutaneously with 5 million tumour cells in HBSS (H6648, Sigma-Aldrich). For SNU-407, Lovo, IM95, RL95.2, Ishikawa and IGROV-1, the cells were concentrated in 50% Matrigel (354234, Corning). Patient-derived xenografts were induced and expanded by transplantation as previously described. […]. For the efficacy experiment, mice were randomized into groups (n = 5–6) for a mean tumour size of 100–150 mm^3. […] Blood samples were collected on day 7 and 91. […]. Tumour responses are reported with the measures of tumour volumes from the treatment start. […]. Animals were randomized (n = 3) and tumour samples were collected at 0, 1, 4, 8 and 24 h on the first day and then collected 4 h after the last treatment on day 3, 8, 10, 14 (including a 24 h timepoint), 17 and 21. Tumours were excised, weighed, either frozen in liquid nitrogen and cryogenic dry pulverized with the CryoPrep system (model CP-02, Covaris) or processed to FFPE after fixation. […]. On day 12, blood samples were collected for PK analysis. On the last day (3 h after the last treatment), tumours were excised, weighed, frozen in liquid nitrogen and cryogenic dry pulverized for PD analysis. […]. […]

## CCc1c(N2CCN(C(=O)c3ncccc3O)CC2)c(=O)n2nc(C3=CCOCC3)nc2n1CC(=O)Nc1ccc(C(F)(F)F)cc1C [compound 3]
15mg/kg BID, 2 h, single mouse, listed as WRNi #4, read-out: Total blood concentration
  concentration at 4 h: 110 nM and 260 nM and 360 nM
15mg/kg BID, 4 h, single mouse, listed as WRNi #4, read-out: Total blood concentration
  concentration at 4 h: 100 nM and 200 nM
15mg/kg BID, 8 h, single mouse, listed as WRNi #4, read-out: Total blood concentration
  concentration at 4 h: 80 nM and 130 nM and 220 nM
15mg/kg BID, last day of the efficacy experiment, 0.5 h post treatment, single mouse, listed as WRNi #4, read-out: Total blood concentration
  concentration at 4 h: 450 nM and 470 nM and 950 nM
50mg/kg BID, 0.5 h, single mouse, listed as WRNi #4, read-out: Total blood concentration
  concentration at 4 h: 8660 nM and 6870 nM
50mg/kg BID, 1 h, single mouse, listed as WRNi #4, read-out: Total blood concentration
  concentration at 4 h: 5090 nM and 4750 nM
50mg/kg BID, 2 h, single mouse, listed as WRNi #4, read-out: Total blood concentration
  concentration at 4 h: 1600 nM and 2410 nM
50mg/kg BID, 4 h, single mouse, listed as WRNi #4, read-out: Total blood concentration
  concentration at 4 h: 470 nM and 240 nM and 860 nM
50mg/kg BID, 8 h, single mouse, listed as WRNi #4, read-out: Total blood concentration
  concentration at 4 h: 100 nM and 210 nM and 230 nM
150mg/kg BID, 0.5 h, single mouse, listed as WRNi #4, read-out: Total blood concentration
  concentration at 4 h: 23940 nM and 28210 nM
150mg/kg BID, 1 h, single mouse, listed as WRNi #4, read-out: Total blood concentration
  concentration at 4 h: 13050 nM and 11280 nM
150mg/kg BID, 2 h, single mouse, listed as WRNi #4, read-out: Total blood concentration
  concentration at 4 h: 7350 nM and 7410 nM
150mg/kg BID, 4 h, single mouse, listed as WRNi #4, read-out: Total blood concentration
  concentration at 4 h: 3220 nM and 720 nM and 1060 nM
150mg/kg BID, 8 h, single mouse, listed as WRNi #4, read-out: Total blood concentration
  concentration at 4 h: 460 nM and 210 nM and 390 nM
female, mouse, whole blood, oral, 15 mg/kg, 15mg/kg BID, 0.5 h, read-out: Mean total blood concentration
  concentration at 0.5 h: 620 nM
female, mouse, whole blood, oral, 15 mg/kg, 15mg/kg BID, 1 h, read-out: Mean total blood concentration
  concentration at 1 h: 680 nM
female, mouse, whole blood, oral, 15 mg/kg, 15mg/kg BID, 1 h, single mouse, read-out: Total blood concentration
  concentration at 1 h: 840 nM
female, mouse, whole blood, oral, 15 mg/kg, 15mg/kg BID, 2 h, read-out: Mean total blood concentration
  concentration at 2 h: 240 nM
female, mouse, whole blood, oral, 15 mg/kg, 15mg/kg BID, 4 h, read-out: Mean total blood concentration
  concentration at 4 h: 130 nM
female, mouse, whole blood, oral, 15 mg/kg, 15mg/kg BID, 4 h, single mouse, read-out: Total blood concentration
  concentration at 4 h: 100 nM
female, mouse, whole blood, oral, 15 mg/kg, 15mg/kg BID, 8 h, read-out: Mean total blood concentration
  concentration at 8 h: 140 nM
female, mouse, whole blood, oral, 50 mg/kg, 50mg/kg BID, 0.5 h, read-out: Mean total blood concentration
  concentration at 0.5 h: 7340 nM
female, mouse, whole blood, oral, 50 mg/kg, 50mg/kg BID, 0.5 h, single mouse, read-out: Total blood concentration
  concentration at 0.5 h: 6500 nM
female, mouse, whole blood, oral, 50 mg/kg, 50mg/kg BID, 1 h, read-out: Mean total blood concentration
  concentration at 1 h: 4820 nM
female, mouse, whole blood, oral, 50 mg/kg, 50mg/kg BID, 1 h, single mouse, read-out: Total blood concentration
  concentration at 1 h: 4620 nM
female, mouse, whole blood, oral, 50 mg/kg, 50mg/kg BID, 2 h, read-out: Mean total blood concentration
  concentration at 2 h: 2060 nM
female, mouse, whole blood, oral, 50 mg/kg, 50mg/kg BID, 2 h, single mouse, read-out: Total blood concentration
  concentration at 2 h: 2180 nM
female, mouse, whole blood, oral, 50 mg/kg, 50mg/kg BID, 4 h, read-out: Mean total blood concentration
  concentration at 4 h: 520 nM
female, mouse, whole blood, oral, 50 mg/kg, 50mg/kg BID, 8 h, read-out: Mean total blood concentration
  concentration at 8 h: 180 nM
female, mouse, whole blood, oral, 150 mg/kg, 150mg/kg BID, 0.5 h, read-out: Mean total blood concentration
  concentration at 0.5 h: 22900 nM
female, mouse, whole blood, oral, 150 mg/kg, 150mg/kg BID, 0.5 h, single mouse, read-out: Total blood concentration
  concentration at 0.5 h: 16500 nM
female, mouse, whole blood, oral, 150 mg/kg, 150mg/kg BID, 1 h, read-out: Mean total blood concentration
  concentration at 1 h: 14700 nM
female, mouse, whole blood, oral, 150 mg/kg, 150mg/kg BID, 1 h, single mouse, read-out: Total blood concentration
  concentration at 1 h: 19700 nM
female, mouse, whole blood, oral, 150 mg/kg, 150mg/kg BID, 2 h, read-out: Mean total blood concentration
  concentration at 2 h: 8330 nM
female, mouse, whole blood, oral, 150 mg/kg, 150mg/kg BID, 2 h, single mouse, read-out: Total blood concentration
  concentration at 2 h: 10200 nM
female, mouse, whole blood, oral, 150 mg/kg, 150mg/kg BID, 4 h, read-out: Mean total blood concentration
  concentration at 4 h: 1670 nM
female, mouse, whole blood, oral, 150 mg/kg, 150mg/kg BID, 8 h, read-out: Mean total blood concentration
  concentration at 8 h: 350 nM
